Measured values reported in US9399028B2, “Treatment of drug resistant cancer” (ROCKEFELLER UNIVERSITY (THE), priority 2012, dated 2016).
Entries after “also recorded” stand apart in the source; their conditions may differ. Where a name gives a salt, the structure may show the parent alone.

Assays:
[1] = system: human melanoma cells and endothelial cells; test: In vitro cell proliferation, viability and serum starvation survival; format: cell-based; conditions: for cell proliferation or cell viability rates: MeWo, HT-144, SK-Mel-334.2 cells, 1 μM, 5 days
Method: To determine the effects of miR-199a or miR-1908 over-expression and combinatorial LNA-induced miRNA inhibition on cell proliferation, 2.5×10^4 cells were seeded in triplicate in 6-well plates, and viable cells were counted after 5 days. […] Viable cells were counted after 8, 24, 48, 72, and 120 hours.
The number of viable cells was counter after 8, 16, and 24 hours.
To determine the effects of GW3965, T0901317, and Bexarotene on in vitro cell growth, 2.5×10^4 melanoma cells were seeded in triplicate in 6-well plates and cultured in the presence of DMSO, GW3965, T0901317, or Bexarotene at 1 μM each. After 5 days, the number of viable and dead cells was counted using the trypan blue dye (72-57-1, Sigma-Aldrich), which selectively labels dead cells.

[2] = system: HUVEC recruited by human melanoma cells; test: Trans-well endothelial recruitment assay; format: cell-based; conditions: for ability of melanoma cells to recruit endothelial cells: MeWo, HT-144, SK-Mel-2, SK-Mel-334.2, 1 μM for 72 hours
Method: 5×10^4 cancer cells were seeded into 24-well plates approximately 24 hours prior to the start of the assay. HUVEC's were grown to 80% confluency and serum starved in EGM-2 media supplemented with 0.2% FBS for 16 hours. HUVEC's were then pulsed with Cell Tracker Red CMTPX dye (C34552, Invitrogen) for 45 minutes. Meanwhile, cancer cells were washed with PBS, 0.5 mL of 0.2% FBS EGM-2 media was added to each well, and a 3.0 μm HTS Fluoroblock insert (351151, BD Falcon, San Jose, Calif.) was placed into each well. 1×10^5 HUVEC's, resuspended in 0.5 mL of starvation media, were seeded into each trans-well insert, and the recruitment assay was allowed to proceed for 16-18 hours at 37° C. For neutralization antibody and/or recombinant protein experiments, antibody/protein was then added to each well at the appropriate concentration as indicated in the figures: 40 μg/mL anti-ApoE 1D7, 40 μg/mL anti-IgG, 100 μM rhApoE3, and 100 μM BSA. Upon completion of the assay, the inserts were processed and analyzed as described for the matrigel invasion assay above (See Matrigel Invasion Assay).
The endothelial recruitment assay was carried out as previously described (Pencheva et al., 2012; Png et al., 2012). Melanoma cells were treated with DMSO, GW3965, T0901317, or Bexarotene at 1 μM for 56 hours, after which 5×10^4 cells were seeded in a 24-well plate in the presence of each drug and allowed to attach for 16 hours prior to starting the assay. HUVEC cells were serum-starved overnight in EGM-2 media containing 0.2% FBS. The following day, 1×10^5 HUVEC cells were seeded into a 3.0 μm HTS Fluoroblock trans-well migration insert (351151, BD Falcon, San Jose, Calif.) fitted into each well containing cancer cells at the bottom. The HUVEC cells were allowed to migrate towards the cancer cells for 20 hours at 37° C., after which the inserts were processed as previously described (Pencheva et al., 2012). For ApoE antibody neutralization experiments, 40 μg/mL 1D7 anti-ApoE blocking antibody (Heart Institute, University of Ottawa, Ottawa, Canada) or 40 μg/mL anti-IgG control antibody (AB-108-C, R&D Systems, Minneapolis, Minn.) was added to each trans-well insert at the start of the assay.
Subsequently, 5×10^4 cancer cells were seeded into 24-well plates in the presence of each drug or DMSO and allowed to attach for 16 hours prior to starting the assay. Human umbilical vein endothelial cells (HUVEC cells) were serum-starved in 0.2% FBS-containing media overnight. The following day, 1×10^5 HUVEC cells were seeded into a 3.0 μm HTS Fluoroblock insert (351151, BD Falcon) fitted into each well containing the cancer cells at the bottom. The HUVEC cells were allowed to migrate towards the cancer cells for 20 hours, after which the inserts were washed in PBS, fixed in 4% PFA, labeled with DAPI, and mounted on slides. The basal side of each insert was imaged using an inverted fluorescence microscope (Zeiss Axiovert 40 CFL) at 5× magnification, and the number of DAPI-positive cells was quantified using ImageJ.

[3] = system: ApoE; test: Gene expression analysis by qRT-PCR in melanoma cells; format: cell-based, human; conditions: 48 hours; for ApoE transcript expression: MeWo, HT-144, WM-266-4 human melanoma lines
Method: Total RNA was extracted from various cell lines using the miRvana kit (AM1560, Applied Biosystems, Austin, Tex.). The expression levels of mature miRNAs were quantified using the Taqman miRNA expression assay (4427975-0002228, Applied Biosystems). RNU44 was used as an endogenous control for normalization. For mRNA expression analyses, 600 ng of total RNA was reverse transcribed using the cDNA First-Strand Synthesis Kit (18080-051, Invitrogen), and roughly 200 ng of the resulting cDNA was then mixed with SYBR green PCR Master Mix (4309155, Applied Biosystems) and the appropriate primers. Each reaction was performed in quadruplicate, and mRNA expression was quantified by performing real-time PCR amplification using an ABI Prism 7900HT Real-Time PCR System (Applied Biosystems). GAPDH was used as an endogenous control for normalization. The following primers were used: […]
RNA was extracted from whole cell lysates using the Total RNA Purification Kit (I 7200, Norgen, Thorold, Canada). 600 ng of total RNA was then reverse transcribed into cDNA using the cDNA First-Strand Synthesis Kit (18080-051, Invitrogen), and quantitative real-time PCR amplification was performed as previously described (Pencheva et al., 2012) using an ABI Prism 7900HT Real-Time PCR System (Applied Biosystems, Austin, Tex.). Each PCR reaction was carried out in quadruplicates. Gene expression was normalized to GAPDH, which was used as an endogenous control.
For every sample, 600 ng of RNA was reverse transcribed into cDNA using the cDNA First-Strand Synthesis kit (Invitrogen). Approximately 200 ng of cDNA was mixed with SYBR® green PCR Master Mix and the corresponding forward and reverse primers specific for detection of human ApoE. Each reaction was carried out in quadruplicates, and ApoE mRNA expression levels were measured by quantitative real-time PCR amplification using an ABI Prism 7900HT Real-Time PCR System (Applied Biosystems). The relative ApoE expression was determined using the ΔΔCt method. GAPDH was used as an endogenous control for normalization purposes.

[4] = MeWo-LM2 or endothelial cells, ApoE 100 μM

`O=S(=O)(c1ccccc1)N(CC(F)(F)F)c1ccc(C(O)(C(F)(F)F)C(F)(F)F)cc1` [T0901317 1] was tested, and the “cell proliferation or cell viability rates” value [1] was “did not affect”, the “ability of melanoma cells to recruit endothelial cells” value [2] was “consistently suppressed” and the ApoE transcript expression [3] was “potently induce”.
In the case of `O=C(O)Cc1cccc(OCCCN(Cc2cccc(C(F)(F)F)c2Cl)CC(c2ccccc2)c2ccccc2)c1` [GW3965 2, 3-[3-[N-(2-Chloro-3-trifluoromethylbenzyl)-(2,2-diphenylethyl)amino]propyloxy]phenylacetic acid hydrochloride], the “cell proliferation or cell viability rates” value [1] is reported as “did not affect”, the “ability of melanoma cells to recruit endothelial cells” value [2] is reported as “consistently suppressed” and the endothelial recruitment ([2]; parental MeWo cells pre-treated 48 hours) is reported as “decreased”. For the same compound, the ApoE transcript expression [3] was “potently induce”, the “expression of ApoE” value ([3]; parental MeWo cells) was “increased” and the “expression of DNAJA4” value ([3]; parental MeWo cells) was “increased”.
For `CC(CCOc1cccc(CC(=O)O)c1)N(Cc1cccc(C(F)(F)F)c1Cl)CC(c1ccccc1)c1ccccc1` (centres unmarked) [SB742881 25], the ApoE expression induction ([3]; MeWo cells, 500 nM, 1 μM or 2 μM) was “varied degrees of ApoE expression induction; also recorded: potently induce”.
With “recombinant human ApoE3: recombinant human ApoE3 (4696, BioVision)” the “melanoma cell or endothelial cell in vitro proliferation” value [1, 4] was “did not affect”, the “survival in serum starvation conditions” value [1, 4] was “did not affect” and the “ability of endothelial cells to migrate towards highly metastatic cancer cells” value ([2]; endothelial cells pre-treated 24 hours, 100 μM) was “significantly reduced”. The “endothelial recruitment by metastatic LM2 cells” value ([2]; recombinant ApoE3 100 μM in cell media) was “significantly suppressed”.
